The values below come from patent US20120284853A1, “HERBICIDE-TOLERANT PLANTS” (BASF AGROCHEMICAL PRODUCTS, B.V., priority 2009, published 2012).

Experiment [1] relates to ACCase-inhibitor tolerant rice plants. The experiment can be described thus: Field treatment of ACCase-inhibitor tolerant rice plants. The format is in vivo. The following applies: 600 g/ha treatment; data not shown.
The next experiment has as its system rice plants. The experiment can be described thus: Greenhouse spray test of M0 regenerants, rated for herbicide injury. The following applies: 400-1600 g ai/ha with 0.1% methylated seed oil, subset 800 g ai/ha, rated 1 and 2 weeks after treatment. The format is in vivo. The procedure: Selected mutants and escapes were transferred to small pots. Wild-type cultivars and 3 biovars of red rice were germinated from seed to serve as controls.
After ca. 3 weeks post-transplant, M0 regenerants were sprayed using a track sprayer with 400-1600 g ai/ha cycloxydim (BAS 517H) supplemented with 0.1% methylated seed oil. After the plants had adapted to greenhouse conditions, a subset were sprayed with 800 g ai/ha cycloxydim. Once sprayed, plants were kept on drought conditions for 24 hours before being watered and fertilized again. Sprayed plants were photographed and rated for herbicide injury at 1 (FIG. 3) and 2 weeks after treatment (FIG. 4). […] FIGS. 5-15 provide nucleic acid and/or amino acid sequences of acetyl-Coenzyme A carboxylase enzymes from various plants. FIG. 17 provides a graph showing results for mutant rice versus various ACCase inhibitors.

The subject of experiment [2] is rice calli derived from Oryza sativa subsp. indica. Description: Kill curves of rice calli in tissue culture (toxic levels of ACCase inhibitors). Particulars: determined by kill curves and observations of continued culture; rice calli on R001M. The format is cell-based. How it is done: FIG. 1 is a bar graph showing relative growth rice calli derived from Oryza sativa subsp. indica grown in the presence of difference selection levels of herbicide.
Once tissue culture conditions were determined, further establishment of selection conditions were established through the analysis of tissue survival in kill curves with cycloxydim, tepraloxydim, sethoxydim (FIG. 1) or haloxyfop (not shown). Careful consideration of accumulation of the herbicide in the tissue, as well as its persistence and stability in the cells and the culture media was performed. Through these experiments, a sub-lethal dose has been established for the initial selection of mutated material.
After the establishment of the starting dose of sethoxydim, cycloxydim, tepraloxydim, and haloxyfop in selection media, the tissues were selected in a step-wise fashion by increasing the concentration of the ACCase inhibitor with each transfer until cells are recovered that grew vigorously in the presence of toxic doses (see FIG. 2). […] Over 26,000 calli were subjected to selection for 4-5 subcultures until the selective pressure was above toxic levels as determined by kill curves and observations of continued culture. Toxic levels were determined to be 50 μM sethoxydim, 20 μM cycloxydim, 2.5 μM tepraloxydim (FIG. 1) and 10 μM haloxyfop (not shown).

On to `CCCC(=NOCC)C1=C(O)CC(C2CCCSC2)CC1=O` (centres unmarked) [cycloxydim], for which the “herbicide tolerance phenotype in the field” value in experiment [1] is “Herbicide tolerance phenotypes as described herein have also been exhibited”. Further, the herbicide injury entry in the experiment with rice plants (control plants and tissue culture escapes) is recorded as “heavily damaged”; in the experiment on rice plants (plants containing the I1,781(Am)L heterozygous mutation) it was “No injury”.

`CCC/C(=N\OCC)C1=C(O)CC(CC(C)SCC)CC1=O` (centres unmarked) [sethoxydim]: the Toxic levels in experiment [2] came to 50 µM.

`CC/C(=N\OC/C=C/Cl)C1=C(O)CC(C2CCOCC2)CC1=O` (centres unmarked) [tepraloxydim] returned a Toxic levels in experiment [2] of 2.5 µM.
